The values that follow come from ChEMBL document CHEMBL3399935, “Structure-activity relationships of benzhydrol derivatives based on 1'-acetoxychavicol acetate (ACA) and their inhibitory activities on multiple myeloma cell growth via inactivation of the NF-κB pathway” (Bioorg Med Chem, 2015).

A short description of test [1]: Cytotoxicity against human HL60 cells assessed as growth inhibition after 3 days. The class given is functional, cell-based. The following applies: HL-60, 72 h.
For test [2], the target named is T1, Nuclear factor NF-kappa-B complex (Homo sapiens) (UniProt Q00653+P19838+Q04206). Description: Inhibition of NF-kappaB in human IM9 cells assessed as inhibition of nuclear translocation at 10 uM after 30 mins by NF-kappaB (p65) transcription factor assay. It counts as cell-based. The following applies: IM-9.
T1 sequence (P19838 whole entry, looked up): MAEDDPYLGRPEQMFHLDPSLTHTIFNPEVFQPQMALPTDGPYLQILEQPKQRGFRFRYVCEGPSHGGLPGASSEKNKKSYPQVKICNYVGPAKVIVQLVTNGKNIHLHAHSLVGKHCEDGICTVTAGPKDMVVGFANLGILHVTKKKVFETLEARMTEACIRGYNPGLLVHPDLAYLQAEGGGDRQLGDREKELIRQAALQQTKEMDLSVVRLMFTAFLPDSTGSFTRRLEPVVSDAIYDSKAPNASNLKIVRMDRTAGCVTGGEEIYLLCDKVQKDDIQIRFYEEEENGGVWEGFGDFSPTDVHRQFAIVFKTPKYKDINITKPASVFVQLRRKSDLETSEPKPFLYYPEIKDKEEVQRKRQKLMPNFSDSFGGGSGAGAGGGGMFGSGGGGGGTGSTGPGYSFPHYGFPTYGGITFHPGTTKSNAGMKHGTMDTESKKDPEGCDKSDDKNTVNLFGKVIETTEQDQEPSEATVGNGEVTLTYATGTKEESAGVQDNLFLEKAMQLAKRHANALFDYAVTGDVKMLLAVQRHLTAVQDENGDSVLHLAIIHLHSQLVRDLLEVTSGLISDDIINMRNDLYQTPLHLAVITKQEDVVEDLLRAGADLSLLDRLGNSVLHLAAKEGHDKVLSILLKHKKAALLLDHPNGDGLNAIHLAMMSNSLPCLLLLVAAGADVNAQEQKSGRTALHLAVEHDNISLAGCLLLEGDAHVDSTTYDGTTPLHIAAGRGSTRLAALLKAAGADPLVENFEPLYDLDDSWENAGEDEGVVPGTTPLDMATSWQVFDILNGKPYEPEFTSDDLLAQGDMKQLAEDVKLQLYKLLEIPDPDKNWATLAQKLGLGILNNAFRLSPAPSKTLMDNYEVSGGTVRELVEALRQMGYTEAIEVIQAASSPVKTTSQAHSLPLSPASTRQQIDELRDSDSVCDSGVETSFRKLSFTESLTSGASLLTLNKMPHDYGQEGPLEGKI
T1 sequence (Q00653 whole entry, looked up): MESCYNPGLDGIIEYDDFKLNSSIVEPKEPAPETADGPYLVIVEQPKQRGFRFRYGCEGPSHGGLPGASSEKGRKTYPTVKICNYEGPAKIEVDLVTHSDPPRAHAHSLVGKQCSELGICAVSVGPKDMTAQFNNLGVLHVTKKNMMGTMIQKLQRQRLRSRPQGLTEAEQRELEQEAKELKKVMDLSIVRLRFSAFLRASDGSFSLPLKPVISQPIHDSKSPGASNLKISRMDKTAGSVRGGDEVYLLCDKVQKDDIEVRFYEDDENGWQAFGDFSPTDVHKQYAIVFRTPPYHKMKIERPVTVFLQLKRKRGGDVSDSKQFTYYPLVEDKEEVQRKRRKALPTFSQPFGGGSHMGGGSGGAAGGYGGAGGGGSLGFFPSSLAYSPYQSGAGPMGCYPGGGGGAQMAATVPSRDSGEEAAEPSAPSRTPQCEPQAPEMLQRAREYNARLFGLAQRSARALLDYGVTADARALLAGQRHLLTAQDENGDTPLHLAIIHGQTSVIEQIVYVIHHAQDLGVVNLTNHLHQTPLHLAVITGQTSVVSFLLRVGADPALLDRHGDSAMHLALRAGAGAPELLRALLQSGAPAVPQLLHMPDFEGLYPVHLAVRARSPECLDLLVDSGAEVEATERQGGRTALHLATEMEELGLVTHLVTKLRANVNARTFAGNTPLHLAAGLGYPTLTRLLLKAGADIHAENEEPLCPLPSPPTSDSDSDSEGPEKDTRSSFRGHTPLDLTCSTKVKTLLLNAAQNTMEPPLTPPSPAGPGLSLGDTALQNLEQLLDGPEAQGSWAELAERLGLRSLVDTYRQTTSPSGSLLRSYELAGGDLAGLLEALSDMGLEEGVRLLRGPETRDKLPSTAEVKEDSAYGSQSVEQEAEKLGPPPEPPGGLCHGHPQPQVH
T1 sequence (Q04206 whole entry, looked up): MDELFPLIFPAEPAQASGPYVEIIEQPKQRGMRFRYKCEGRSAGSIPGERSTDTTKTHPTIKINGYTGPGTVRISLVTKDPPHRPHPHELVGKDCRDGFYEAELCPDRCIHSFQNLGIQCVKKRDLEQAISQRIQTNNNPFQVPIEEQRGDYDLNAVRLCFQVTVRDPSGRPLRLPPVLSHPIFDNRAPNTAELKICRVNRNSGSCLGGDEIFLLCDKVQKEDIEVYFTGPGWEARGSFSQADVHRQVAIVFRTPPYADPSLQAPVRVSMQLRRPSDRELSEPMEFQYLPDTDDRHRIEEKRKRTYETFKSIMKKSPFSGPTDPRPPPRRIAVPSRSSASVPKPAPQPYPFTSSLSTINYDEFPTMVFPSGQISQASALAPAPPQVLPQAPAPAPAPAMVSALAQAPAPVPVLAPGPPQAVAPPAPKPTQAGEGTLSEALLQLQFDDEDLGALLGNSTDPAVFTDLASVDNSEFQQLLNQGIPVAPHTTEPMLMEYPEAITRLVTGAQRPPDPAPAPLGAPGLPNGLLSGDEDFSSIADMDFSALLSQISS
Test [3] in a line: Cytotoxicity against human IM9 cells assessed as growth inhibition after 3 days. It counts as functional, cell-based. As to conditions: IM-9, 72 h.
A further test relates to HL-60. Kind of test: Cytotoxicity against human HL60 cells assessed as growth inhibition at 10 uM after 3 days. The class given is functional, cell-based.
A further test deals with IM-9. Description: Cytotoxicity against human IM9 cells assessed as growth inhibition at 10 uM after 3 days. It counts as functional, cell-based.
Test [4] addresses T1, Nuclear factor NF-kappa-B complex (Homo sapiens). Description: Inhibition of NF-kappaB in human IM9 cells assessed as inhibition of nuclear translocation at 1 uM after 30 mins by NF-kappaB (p65) transcription factor assay. The class given is cell-based. As to conditions: IM-9.

Activity calls are given as the source filed them. The calls are words filed in the database; no cut-off is given here.

Consider `CC(=O)Oc1ccc(C(OC(C)=O)c2cc(-c3ccccc3)cc(-c3ccccc3)c2)cc1` (stereo not given), for which the IC50 in test [1] was 1100 nM.
Consider `CC(=O)Oc1ccc(C(OC(C)=O)c2ccccc2)cc1` (stereo not given), for which the values for the IC50 in test [1] and in test [3] were 3500 nM and 2500 nM, respectively. Further, the inhibition in test [2] is 61%.
Take `CC(=O)Nc1ccc(C(OC(C)=O)c2ccccc2)cc1` (stereo not given): the inhibition entry in the test on HL-60 is “inactive”.
Take `CC(=O)Oc1ccc(C(OC(C)=O)c2ccc3ccccc3c2)cc1` (stereo not given): in test [1], the IC50 was found to be 2200 nM.
With `CC(=O)Oc1ccc2c(c1)CCc1ccccc1C2OC(C)=O` (stereo not given), the IC50 in test [1] is 2800 nM.
As to `CC(=O)Oc1ccc2c(c1)-c1ccccc1C2OC(C)=O` (stereo not given), in test [1], the IC50 is over 10000 nM. The inhibition entry (with IM-9; in test [2]) was “inactive” throughout.
On to `CC(=O)Oc1ccc(C(OC(C)=O)c2cccc3ccccc23)cc1` (stereo not given), for which the IC50 in test [1] amounted to 290 nM.
In the case of `C=C[C@H](OC(C)=O)c1ccc(OC(C)=O)cc1` [1'-ACETOXYCHAVICOL ACETATE], the IC50 is 2000 nM in test [1] and 2100 nM in test [3]. Also, the inhibition was found to be 0% in test [4] and 70% in test [2].
As for `CC(=O)Oc1ccc(C(OC(C)=O)c2c3ccccc3cc3ccccc23)cc1` (stereo not given), the IC50 in test [1] came out at 120 nM; in test [3] it was 230 nM. For the same molecule, the inhibition in test [4] turned out to be 32%; in test [2], 85%.
As for `CC(=O)NC(c1ccccc1)c1ccc(OC(C)=O)cc1` (stereo not given), the inhibition result with HL-60 is “inactive”.
